Assay results published in patent US9464326B2, “Total and phosphorylated IL-1 receptor-associated kinase-1 and IL-1 receptor-associated kinase-4 as a biomarker for cancer progression and chemotherapy resistance” (University of Maryland, Baltimore, priority 2012, dated 2016).

Key:
Assay type in all cases: cell-based, human
Malme-3M melanoma cells = test: Apoptosis by annexin-V/PI flow cytometry in Malme-3M
Method: FIG. 8. IRAK-1,-4 inhibition sensitized melanoma cells to vinblastine-mediated cytotoxicity. (A) A375 and Malme-3M melanoma cells were cultured with or without 2.5 μM of IRAK-1,-4 and in the presence varying concentrations of vinblastine, cisplatin or 5′ Fluorouracil. Forty-eight hours later apoptosis was evaluated by staining cells with annexin-V and propidium iodide and analyzed by flow cytometry. (B) A375 cells were transfected via electroporation with siRNA-IRAK-1,-4. IRAK-1 protein levels were examined by Western blotting. […], A375-psiRNA-hIRAK-1, A375-psiRNA-hIRAK-4, or cells expressing both psiRNA-hIRAK-1 and -4 were cultured in the presence of vinblastine (100 nmol/L) for 48 hours and apoptosis was examined by flow cytometry. (C) A375 melanoma cells were cultured in the presence of vehicle alone (DMSO) or various concentrations of IRAK-1,-4. Forty-eight hours later cell lysates were used to analyze the expression of levels of cleaved PARP or caspase-3 by Western blots. (D) A375 melanoma cells were cultured with or without 2.5 μM of IRAK.-1,-4 and in the presence or absence of vinblastine for 48 hrs. PARP and caspase-3 levels were determined by Western blot.
The TLR1-TLR2 ligand tripalmitoyl-S-(bis(palmitoyloxy)propyl)-Cys-Ser-(Lys)3-Lys (Pam3Cys) was purchased from Invivogen (San Diego, Calif., USA). […] In some experiments cells were treated with the indicated concentrations of IRAK.-1,-4 inhibitor and vinblastine, cisplatin, and 5-fluorouracil (Sigma-Aldrich, St. Louis, Mo.), and apoptosis was quantitated by flow cytometry after staining cells with FITC-labeled annexin-V (BD Pharmingen, San Jose, Calif.) and propidium iodide (PI; Sigma-Aldrich).

CEM-C7 = test: Proliferation (3H-thymidine) of CEM-C7
Excerpt: (§1) CCRF-CEM, CEM/C1, CEM/C2, CEM-C7, Jurkat, Loucy, Molt-4, HSB-2, SUP-T1, Hut 78, HH, Hut 102, MO, and H9 T-leukemia and T-lymphoma cell lines were purchased from the American Type Culture Collection (Manassas, Va., USA). All of the cell lines were initially expanded and cryopreserved within one month of receipt. Cells were typically used for 6 months at which time a fresh vial of cryopreserved cells was used. Total T cells from healthy donors were isolated via negative selection followed by positive selection using a CD3+ selection kit (Invitrogen, Carlsbad, Calif.). T cells were isolated from patients with T-ALL bone marrow or peripheral blood samples containing more than 70% leukemia cells using a CD2+ isolation kit (STEMCELL Technologies, Vancouver, Canada). All tissues were collected under institutional IRB-approved protocols and all participants gave written informed assent/consent. For in vitro experiments, T-ALL cells were cultured in AIM-V medium supplemented with 20% human AB serum in the presence of recombinant human stem cell factor (50 ng/mL; Amgen, Thousand Oaks, Calif.), insulin (20 nM; Sigma-Aldrich, St Louis, Mo., USA) and IL-7 (50 ng/mL; R&D Systems, Minneapolis, Minn., USA). In other experiments, protein lysate was collected using the Full Moon Biosystems (Sunnyvale, Calif., USA) buffer prior to protein examination by western blot or protein array.
(§2) Cells were cultured in a 96-well plate (Corning Costar, Corning, N.Y., USA) with various concentrations of TLR ligands 1-9, starting at 10 μg/ml, in a final volume of 200 ul. TLR ligands were diluted 2-fold. Cell lines (25-40×10^3/well) were cultured for 54 hours, whereas fresh patient-derived T-ALL cells (200×10^3/well) were cultured for 30 hours prior to adding [^3H]-thymidine for 18 hours. After this time point, cells were harvested with a Packard Filter-Mate-96 cell harvester (Perkin Elmer, Waltham, Mass., USA) and counted on Packard Top Count-NXT (Perkin Elmer, Waltham, Mass., USA). Results were expressed as average counts per minute (cpm). In some experiments CCRF-CEM cells were pre-treated with TLR1-TLR2 ligand (Pam3CysK4; 2.5 ug/ml) for 48 hrs, washed, and then cultured in the presence of varying concentrations of FBS. Forty-eight hours later, proliferation (±SD) was determined by ^3H-thymidine incorporation. Alternatively, apoptosis was measured by flow cytometry after staining cells with Annexin-V (BD Pharmingen, San Diego, Calif., USA) and propidium iodide (Sigma). Cell number was counted under microscopy by staining cells with trypan blue.
(§3) The following TLR ligands were purchased from Invivogen (San Diego, Calif., USA): tripalmitoyl-S-(bis(palmitoyloxy)propyl)-Cys-Ser-(Lys)3-Lys (TLR1-2); Poly I:C (TLR3); ultrapure S. Minnesota Lipopolysaccharide (TLR4); S. typhimurium flagellin (TLR5); FSL-1 (TLR2/6); Imiquimod (TLR7); ssRNA40/Lyovec (TLR8); CpG-ODN 2006 (TLR9).

SupT1 = test: Proliferation (3H-thymidine) of SupT1
Excerpt: as §1, §2, §3

Primary T-cells Non-Act = test: Proliferation (3H-thymidine) of non-activated primary T-cells; settings: 3H-thymidine uptake, 72 h
Excerpt: as §1, with “In other experiments, protein lysate was collected using the Full Moon Biosystems (Sunnyvale, Calif., USA) buffer prior to protein examination by western blot or protein array.” left out
Cells were cultured in a 96-well plate (Corning Costar, Corning, N.Y., USA) with various concentrations of TLR ligands 1-9, starting at 10 μg/ml, in a final volume of 200 ul. […] After this time point, cells were harvested with a Packard Filter-Mate-96 cell harvester (Perkin Elmer, Waltham, Mass., USA) and counted on Packard Top Count-NXT (Perkin Elmer, Waltham, Mass., USA). Results were expressed as average counts per minute (cpm). […] Forty-eight hours later, proliferation (±SD) was determined by ^3H-thymidine incorporation. Alternatively, apoptosis was measured by flow cytometry after staining cells with Annexin-V (BD Pharmingen, San Diego, Calif., USA) and propidium iodide (Sigma). Cell number was counted under microscopy by staining cells with trypan blue. […]

C32 melanoma cells = test: Vinblastine-induced apoptosis in C32 (flow cytometry); settings: vinblastine 100 nM with TLR1-TLR2 ligand 2.5 μg/ml, 48 hours, FIG. 20B
Method: FIG. 20. Role of TLR-induced cytokines and NF-kB on cell survival. (A) A375 melanoma cells were cultured in a 48-well plates in the presence or absence of NF-kB inhibitor NF-kB inhibitor SN50 (100 nM; Anaspec) with or without vinblastine (100 nM) or Doxorubicin (0.25 μg/ml). The percentage of apoptotic cells was measured by staining cells with Annexin and PI 48 hours later and analyzed by flow cytometry. (B) C32 melanoma cells were cultured in the presence of vinblastine (100 nM) and in the […] of TLR1-TLR2 ligand (2.5 μg/ml) or the presence of supernatant from TLR1-TLR2-stimulated A375 cells. After 48 hours, apoptosis was measured by flow cytometry. (C) A375 melanoma cells were cultured in the presence or absence of vinblastine (100 nM) and IL-1 (50 ng/ml; BioLegend), IL-18 (100 ng/ml; Medical and Biological Lab) or CXCL1 (50 ng/ml; R&D Systems). Apoptosis was measured 48 hours later by flow cytometry.
Alternatively, cytokines/chemokines produced in response to TLR-IRAK signaling might also contribute to the chemoprotective effects. Supernatant from TLR-1-TLR-2 stimulated or unstimulated A375 melanoma cells was added to the C32 melanoma cells in the presence or absence of vinblastine. Another group of cells were treated with TLR1-TLR2 ligand and apoptosis was examined by flow cytometry. […]

Row | Molecule | apoptosis with 5′-fluorouracil (Malme-3M melanoma cells; Malme3M, IRAK-1,-4 inhibitor with 0-100 nmol/L 5′-fluorouracil) | sensitivity to vinblastine (apoptosis) (Malme-3M melanoma cells; Malme-3M, 2.5 μmol/L IRAK-1,-4 inhibitor with 0-200 nmol/L vinblastine, 48 h) | cisplatin's cytotoxicity (Malme-3M melanoma cells; Malme-3M, IRAK-1,-4 inhibitor with 0-50 nmol/L cisplatin) | Proliferative effects of TLR ligands (CEM-C7; 3H-thymidine uptake, 72 h) | TLR ligand concentration in parentheses below the symbol (CEM-C7; no unit in table (μg/ml)) | Proliferative effects of TLR ligands (SupT1; SupT1, 3H-thymidine uptake, 72 h) | effect on proliferation (in words) (SupT1; SupT1 T-lymphoblastic leukemia, FIG. 1A) | Proliferative effects of TLR ligands (Primary T-cells Non-Act) | vinblastine-induced apoptosis (C32 melanoma cells)
1 | O=C(Nc1nc2ccccc2n1CCN1CCOCC1)c1cccc([N+](=O)[O-])c1 [IRAK-1,-4 inhibitor] | appeared to enhance apoptosis | increased sensitivity | did not increase |  |  |  |  |  | 
2 | tripalmitoyl-S-(bis(palmitoyloxy)propyl)-Cys-Ser-(Lys)3-Lys [Pam3Cysk4] |  |  |  | + (enhanced proliferation by 25% or greater) | (2.5) | ∘ | no effect on proliferation | ∘ | little effect
